Where “and” joins values, the source holds several entries; their conditions need not be identical. Equal entries are not always repeated. Where two headings read alike, the source gives them in different places. Values belong to the molecule of their own block, whether it stands above or below them.
How the values were obtained:
[1] = test system: A375 melanoma cells; assay: AlamarBlue assay, A375; type: cell-based, human; details: for Cellular activity in melanoma cells (A375), alamarBlue: Fig.1g, replicates; for IC50: read-out: IC50, cellular activity in A375 (alamarBlue)
Protocol: 3. AlamarBlue assay. AlamarBlue was made by resazurin sodium salt (Sigma, Cat
# 199303) dissolved in PBS.
NCI-H211, MDA-MB231 and A375 cells were plated in 96-well plates at approximately 30% confluence and left overnight to adhere. In the following day, […]
of treatment, 10 μl AlamarBlue reagent (0.3 mg/ml) was added to each well, and after 18h, the florescence intensity in each well was measured using a top-reading fluorescent plate reader with excitation at 530 nm and emission at 590 nm. […]

[2] = test system: A375 human melanoma; assay: A375 human melanoma xenograft tumor growth; type: in vivo, mouse; details: Fig.3e, 5 Days on, 2 Days off / week x3, individual animals
Excerpt: PO, oral administration; QD, once daily; BID, twice daily. b–d Tumor growth curves for A2780 ovarian tumor (n = 5) (b), TMD8 large B cell lymphoma (n = 6) (c), and B16F10 melanoma (n = 5) (d) bearing mice treated with the indicated compounds once daily for 11-21 days. e, f Tumor growth curves for A375 melanoma (n = 6) (e), and patient-derived xenograft (PDX) of melanoma (n = 5) (f) bearing mice treated with the indicated compounds once daily (5 days on, 2 days off) for 21 days. For d–f, NHWD-870 used is NHWD-870-HCl synthesized using Suzuki coupling route. Data are presented as mean ± SEM in (a, b, d, f) and mean + SEM in (c, e). p values were calculated using two-tailed, unpaired t tests. *p < 0.05; **p < 0.01; ***p < 0.001. Source data are provided as a Source Data file.
4–6 weeks old female BALB/c nude mice were used for most experiments, with the exception of 6–8 weeks old female C57BL/6 mice were used for B16F10 experiments, and 6–8 weeks old male BALB/c nude mice and SD rats were used for pharmacokinetic experiments. All animals were purchased from Shanghai SIPPR-Bk Lab Animal Co., Ltd. All animals were housed under a regimen of 12 h light/12 h dark cycles and specific pathogen-free conditions. 5×10^6 NCI-H526, ES-2, MDA-MB231, A2780, A375, B16F10, and TMD-8 cells (0.1 ml) were injected subcutaneously into female nude mice. The melanoma patient-derived xenograft model was derived from a human melanoma sample (BRAF, NARS and NF1 wild type, and p53 mutant) removed from a patient in Xiangya Hospital. Surgically removed tumor fragments were implanted subcutaneously into female NSG mice. When the tumors grew to ~1000 mm^3, they were harvested and cryopreserved or immediately re-implanted for expansion or experiments. Mouse body weight and tumor sizes were measured every 3 days. Once the tumors grew to 150–200 mm^3, mice were treated with the compounds as described in the Figures. 1 × 10^6 A2780 cells (1 ml) were injected into the abdominal cavity of nude mice. Ascitic volume and tumor weight were measured by an electronic balance. All the procedures were evaluated and approved by the Institutional Animal Care and Use Committee of Central South University and Yale University. […]
We apologize for not clearly labeling the experiments using compounds synthesized using Suzuki coupling method. In the revised manuscript, we modified the text to clearly mark the animal models in Fig 3d-f were tested using NHWD-870 synthesized using Suzuki […]
compared the activity of NHWD-870 synthesized using Stille coupling route with the NHWD-870 synthesized from Suzuki coupling route (Reviewer Figure 1). […]
activity and possible toxicity were identical.
Reviewer Figure 1 NHWD-870 synthesized through Stille or Suzuki route has similar properties in vivo. Tumor bearing mice were treated with 2mg/kg of the indicated compounds, orally administrated once daily for 21 days. Shown are tumor growth curves (a) and body weight change (b) for A375 melanoma bearing mice. […]
986158 in terms of potency, but apart from with the A375 melanocyte cell line, the advance seems relatively moderate. With such similar compounds, the pharmacokinetic properties and ability to accumulate at the desired site is often more important. Figure S6d (prev. Fig. 3d) in the previous

- IC50 ([1]; Homo sapiens, A-375, nM printed in b8, the picture prints no unit): 35.6 nM
SMILES: CCNC(=O)C[C@@H]1N=C(c2ccc(Cl)cc2)c2cc(OC)ccc2-n2c(C)nnc21 [GSK-525762]
- Cellular activity in melanoma cells (A375), alamarBlue ([1]; concentration(nM) 0.21442, listed as GSK-525672): 0.7 and 0.7152
- Cellular activity in melanoma cells (A375), alamarBlue ([1]; concentration(nM) 0.31236, listed as GSK-525672): 2.411 and 2.845
- Cellular activity in melanoma cells (A375), alamarBlue ([1]; concentration(nM) 0.4103, listed as GSK-525672): 1.577 and 2.366
- Cellular activity in melanoma cells (A375), alamarBlue ([1]; concentration(nM) 0.6032, listed as GSK-525672): 8.146 and 9.5447
- Cellular activity in melanoma cells (A375), alamarBlue ([1]; concentration(nM) 1.2043, listed as GSK-525672): 25.5205 and 30.3178
- Cellular activity in melanoma cells (A375), alamarBlue ([1]; concentration(nM) 1.8024, listed as GSK-525672): 60.9618 and 63.2464
- Cellular activity in melanoma cells (A375), alamarBlue ([1]; concentration(nM) 2.4, listed as GSK-525672): 99.5135 and 98.5975
- Cellular activity in melanoma cells (A375), alamarBlue ([1]; concentration(nM) 3, listed as GSK-525672): 100.155 and 100.899

- IC50 ([1]; nM): 55.5 nM
SMILES: COc1cc2c(cc1-c1c(C)noc1C)ncc1[nH]c(=O)n([C@H](C)c3ccccn3)c12 [I-BET151]
- Cellular activity in melanoma cells (A375), alamarBlue ([1]; concentration(nM) 0.21442): 0.1541 and 0.2687
- Cellular activity in melanoma cells (A375), alamarBlue ([1]; concentration(nM) 0.31236): 1.39 and 1.537
- Cellular activity in melanoma cells (A375), alamarBlue ([1]; concentration(nM) 0.4103): 1.399 and 1.952
- Cellular activity in melanoma cells (A375), alamarBlue ([1]; concentration(nM) 0.6032): 7.8413 and 3
- Cellular activity in melanoma cells (A375), alamarBlue ([1]; concentration(nM) 1.2043): 31.4642 and 32.5943
- Cellular activity in melanoma cells (A375), alamarBlue ([1]; concentration(nM) 1.8024): 46.9054 and 45.198
- Cellular activity in melanoma cells (A375), alamarBlue ([1]; concentration(nM) 2.4): 80.0356 and 78.8893
- Cellular activity in melanoma cells (A375), alamarBlue ([1]; concentration(nM) 3): 99.9805 and 100.846

SMILES: Cc1nnn(C)c1-c1cnc2c3c4cnn(C)c4ccc3n([C@H](c3ccccc3)C3CCOCC3)c2c1.Cl [NHWD-870-HCl]
- Tumor volume ([2]; 2 mg/kg PO QD, day 0): 124.032 mm3 and 120.497 mm3 and 183.857 mm3 and 155.659 mm3 and 140.462 mm3 and 187.897 mm3
- Tumor volume ([2]; 2 mg/kg PO QD, day 4): 125.079 mm3 and 148.629 mm3 and 180.193 mm3 and 187.061 mm3 and 149.381 mm3 and 207.594 mm3
- Tumor volume ([2]; 2 mg/kg PO QD, day 7): 119.983 mm3 and 238.282 mm3 and 335.392 mm3 and 359 mm3 and 146.599 mm3 and 237.29 mm3
- Tumor volume ([2]; 2 mg/kg PO QD, day 11): 204.214 mm3 and 361.187 mm3 and 438.176 mm3 and 511.029 mm3 and 273.013 mm3 and 310.165 mm3
- Tumor volume ([2]; 2 mg/kg PO QD, day 14): 396.493 mm3 and 659.962 mm3 and 783.286 mm3 and 668.171 mm3 and 489.424 mm3 and 499.77 mm3
- Tumor volume ([2]; 2 mg/kg PO QD, day 18): 580.818 mm3 and 828.001 mm3 and 941.933 mm3 and 817.427 mm3 and 615.591 mm3 and 523.033 mm3
- Tumor volume ([2]; 2 mg/kg PO QD, day 21): 932.477 mm3 and 934.695 mm3 and 1116.85 mm3 and 993.943 mm3 and 830.361 mm3 and 759.477 mm3
- Tumor volume ([2]; 3 mg/kg PO QD, day 0): 187.407 mm3 and 129.823 mm3 and 123.552 mm3 and 162.978 mm3 and 197.865 mm3 and 111.638 mm3
- Tumor volume ([2]; 3 mg/kg PO QD, day 4): 180.115 mm3 and 100.661 mm3 and 101.808 mm3 and 169.071 mm3 and 201.772 mm3 and 81.9823 mm3
- Tumor volume ([2]; 3 mg/kg PO QD, day 7): 354.946 mm3 and 108.136 mm3 and 132.2 mm3 and 290.979 mm3 and 435.513 mm3 and 83.7227 mm3
- Tumor volume ([2]; 3 mg/kg PO QD, day 11): 333.816 mm3 and 123.623 mm3 and 211.51 mm3 and 368.326 mm3 and 511.795 mm3 and 108.132 mm3
- Tumor volume ([2]; 3 mg/kg PO QD, day 14): 869.938 mm3 and 282.077 mm3 and 467.223 mm3 and 627.735 mm3 and 985.207 mm3 and 153.932 mm3
- Tumor volume ([2]; 3 mg/kg PO QD, day 18): 947.479 mm3 and 354.935 mm3 and 602.443 mm3 and 703.598 mm3 and 1037.76 mm3 and 172.297 mm3
- Tumor volume ([2]; 3 mg/kg PO QD, day 21): 1152.24 mm3 and 633.313 mm3 and 890.897 mm3 and 1097.51 mm3 and 1306.53 mm3 and 328.738 mm3
- Tumor volume ([2]; Group 4, 1 mg/kg PO QD, day 0): 129.244 mm3 and 160.038 mm3 and 169.001 mm3
- Tumor volume ([2]; Group 4, 1 mg/kg PO QD, day 4): 194.913 mm3 and 185.189 mm3
- Tumor volume ([2]; Group 4, 1 mg/kg PO QD, day 7): 287.4 mm3 and 179.028 mm3
- Tumor volume ([2]; Group 4, 1 mg/kg PO QD, day 11): 471.867 mm3 and 223.232 mm3
- Tumor volume ([2]; Group 4, 1 mg/kg PO QD, day 14): 761.481 mm3 and 416.901 mm3
- Tumor volume ([2]; Group 4, 1 mg/kg PO QD, day 18): 1193.81 mm3 and 502.306 mm3
- Tumor volume ([2]; Group 4, 1 mg/kg PO QD, day 21): 1260.17 mm3 and 803.56 mm3 and 2033.79 mm3

Reference: publication PMC7156724, “Potent BRD4 inhibitor suppresses cancer cell-macrophage interaction” (Nature Communications, 2020)
